Laboratory results: patent EP0227431A1, “Heterocyclic amides” (BEECHAM GROUP PLC, priority 1985, dated 1987)
Blank lines part the entries; values can stand above or below the compound they belong to.

Experiments:
[1] = target: T1, 5-Lipoxygenase enzyme (10,000 g supernatant from RBL-1 cells) (Rattus norvegicus, UniProt P12527); assay: Inhibition of 5-Lipoxygenase Activity (Method B); format: biochemical; conditions: decrease in formation of 5-HETE and 5,12-diHETE relative to control
T1 construct: 5-Lipoxygenase enzyme was prepared as a 10,000 g supernatant from RBL-1 cells; endogenous in cells; host or cells: RBL-1 cells (10,000 g supernatant, method of Jakschik)
T1 sequence (P12527 1-673): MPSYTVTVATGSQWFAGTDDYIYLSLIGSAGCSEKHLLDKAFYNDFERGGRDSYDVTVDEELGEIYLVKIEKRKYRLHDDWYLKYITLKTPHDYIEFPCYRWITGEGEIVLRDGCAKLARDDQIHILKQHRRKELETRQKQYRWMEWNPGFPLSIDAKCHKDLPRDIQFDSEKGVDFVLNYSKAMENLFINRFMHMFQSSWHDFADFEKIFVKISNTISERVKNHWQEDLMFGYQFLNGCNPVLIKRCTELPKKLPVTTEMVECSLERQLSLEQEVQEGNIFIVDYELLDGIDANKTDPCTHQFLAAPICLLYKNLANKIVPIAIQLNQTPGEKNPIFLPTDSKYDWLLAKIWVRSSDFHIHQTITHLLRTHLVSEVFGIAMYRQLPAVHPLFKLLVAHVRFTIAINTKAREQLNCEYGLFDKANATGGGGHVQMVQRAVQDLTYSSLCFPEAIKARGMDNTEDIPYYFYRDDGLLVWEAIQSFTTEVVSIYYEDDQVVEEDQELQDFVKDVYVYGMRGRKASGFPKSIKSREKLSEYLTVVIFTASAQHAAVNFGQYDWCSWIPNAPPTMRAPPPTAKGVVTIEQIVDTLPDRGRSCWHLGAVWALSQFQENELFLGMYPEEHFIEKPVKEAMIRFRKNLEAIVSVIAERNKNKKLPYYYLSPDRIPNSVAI
Method: Inhibition of 5-Lipoxygenase Activity
5-Lipoxygenase enzyme was prepared as a 10,000 g supernatant from RBL-1 cells by the method of Jakschik [Jakschik, B.A., F.F. Sun, L.M. Lee, and M.M.Steinhoff, 1980, Biochem. Biophys. Res. Comm. 95, 103]. The 10,000 g supernatant was diluted with homogenization buffer to the equivalent of 1.5 - 2.5 x 10^7 cells. ml-^1 and made 2mM with respect to CaCl2. Aliquots of 0.5 ml were then dispensed into tubes, and incubated at 29 °C with 5 µl ethanol or compound in ethanol at the desired concentration for 2 min. Then [1-^14C] arachidonic acid was added in buffer to give a final concentration of 6.3 uM and 0.2 µCi per incubation, and the reaction continued at 29 °C for 2 min. The reaction was terminated by adding 1 ml of acetone and cooling on ice, 0.5 ml of ice-cold saline and 10 µl of 2N formic acid were added, and the mixture was extracted with 2 x 2 ml of chloroform. The extract was stored under N2at -20°C until analysis by chromatography. Activity was measured as the percentage of total radioactivity found in 5-HETE and 5,12-diHETE, and inhibition calculated as the decrease in formation of the sum of these two species in compound-treated incubates relative to control incubates.

[2] = test system: Phospholipase A2 (Naja naja venom, Sigma); assay: Inhibition of Phospholipase A2 Activity (Method A); format: biochemical; conditions: inhibition of arachidonic acid release, tested in triplicate
Method: Inhibition of Phospholipase A2 Activity
Enzyme: Phospholipase A2 (Naja naja venom, Sigma)
Substrate: Diarachidoyl phosphatidylcholine (10.6mg) and α-1-palmitoyl-2-[1-^14C]-arachidonyl phosphatidylcholine (0.5uCi; 52.9mCi/mMol) in 28ml of TrisHCl buffer=100mM, pH 8.7) ultrasonicated.
Assay: Incubations containing PLA2 (0.125ng) in Tris HC1 buffer (lOOmM, pH 8.7) and CaCl2 (4mM) were prepared on ice. Immediately prior to incubation at 37°C 5µl of DMSO or compound in DMSO were added. The final assay volume was 1.75ml. After 10 minutes at 37 °C 750µl of substrate was added, with mixing, and the incubation continued for a further 15 min. The reaction was terminated by placing on ice and adding 5ml CHCl3:MeOH (2:lv/v).
The lower organic phase was removed and stored under N2 at-20 °C until analysed. Analysis was by 1-dimensional t.l.c. on polygram Sil G sheets in the solvent system petroleum ether: diethyl ether: acetic acid (60:40:1,v/v). In this system the phospholipid remains at the origin and the arachidonic acid has an approximate Rf. value of 0.36. The areas of interest were cut from the plates and radioactivity determined by liquid scintillation counting.
All compounds were tested in triplicate.
Calculation: The radioactivity of the arachidonic acid is expressed as a percentage of the total dpm cut from the plate. The percentage inhibition of arachidonic acid release compared to that of the control was calculated after correction for the level of spontaneous release where: • x = % corrected mean arachidonic acid release in control • y = % corrected arachidionic acid release after inhibition • % inhibition [formula]
The mean of the triplicate samples was calculated giving z + standard deviation%.

Structure (SMILES): COC(=O)c1sccc1NC(=O)C=Cc1ccc(OC)c(OC)c1 [Example 6, Methyl-3[N-(3,4-dimethoxycinnamoyl)amino]thiophene-2-carboxylate]
inhibition at 20 µM [1]: 81% | Phospholipase A2 Inhibition at 20µM (%) [2]: 31%

Structure (SMILES): COC(=O)c1sccc1NC(=O)C=Cc1ccc(O)c(O)c1 [Example 7]
inhibition at 20 µM [1]: 93% | Phospholipase A2 Inhibition at 20µM (%) [2]: 84%

Structure (SMILES): COC(=O)c1sccc1NC(=O)C=Cc1ccc(O)c(OC)c1 [Example 8]
inhibition at 20 µM [1]: 98% | Phospholipase A2 Inhibition at 20µM (%) [2]: 26%

Structure (SMILES): CCOC(=O)c1c[nH]nc1NC(=O)C=Cc1ccc(O)c(O)c1 [Example 9, Ethyl 3-[N-(3,4-dihydroxycinnamol)amino]pyrazole-4-carboxylate]
inhibition at 20 µM [1]: 97% | Phospholipase A2 Inhibition at 20µM (%) [2]: 71%

Structure (SMILES): CCOC(=O)c1cccnc1NC(=O)C=Cc1ccc(O)c(O)c1 [Example 10, Ethyl-2 [N-(3,4-dihydroxycinnamoyl)amino]pyridine-3-carboxylate]
inhibition at 20 µM [1]: 95% | Phospholipase A2 Inhibition at 20µM (%) [2]: 10%

Structure (SMILES): CCOC(=O)c1c(NC(=O)C=Cc2ccc(O)c(O)c2)sc2c1CCCC2 [Example 11, Ethyl-2[N-3,4-dihydroxycinnamoyl)amino]4,5,6,7-tetrahydrobenzo [bj thiophene-3-carboxylate]
inhibition at 20 µM [1]: 91% | Phospholipase A2 Inhibition at 20µM (%) [2]: 92%

Structure (SMILES): O=C(C=Cc1ccc(O)c(O)c1)Nc1ccsc1C(=O)O [Example 12]
inhibition at 20 µM [1]: 88% | Phospholipase A2 Inhibition at 20µM (%) [2]: 36%

Structure (SMILES): COc1cc(C=CC(=O)Nc2ccsc2C(=O)O)ccc1O [Example 13, 3-[N-(4-hydroxy-3-methoxycinnamoyl)-amino]thiophene-2-carboxylic acid.]
inhibition at 20 µM [1]: 64% | Phospholipase A2 Inhibition at 20µM (%) [2]: 26%

inhibition at 20 µM [1]: 67%
Structure (SMILES): O=C(C=Cc1ccc(O)c(O)c1)Nc1ncccc1C(=O)O [Example 14, 2-[N-(3,4-dihydroxycinnamoyl)amino]pyridine 3-carboxylic acid]

Structure (SMILES): COc1ccc(C=CC(=O)Nc2ccsc2C(=O)O)cc1OC [Example 15, 3-[N-(3,4-Dimethoxycinnamoyl)amino]thiophene-2-carboxylic acid]
inhibition at 20 µM [1]: 0% | Phospholipase A2 Inhibition at 20µM (%) [2]: 10%

Structure (SMILES): COC(=O)c1sc(-c2ccc(Cl)cc2)cc1NC(=O)C=Cc1ccc(OC(C)=O)c(OC(C)=O)c1 [Example 16, Methyl-5-(4-chlorophenyl)-3-(3,4-diacetoxycinnamoyl-amino)-thiophene-2-carboxylate]
inhibition at 20 µM [1]: 60%
